# Experimental data reported in publication PMC11762167, “G Protein-Coupled Receptor 17 Inhibits Glucagon-like Peptide-1 Secretion via a Gi/o-Dependent Mechanism in Enteroendocrine Cells” (Biomolecules, 2024).
# What was measured:
# [1] = molecular target: hGPR17L (Homo sapiens, UniProt Q13304); experiment: Calcium mobilization in HEK293 cells transfected with hGPR17L; assay type: cell-based
# Procedure: HEK293 cells were maintained and transfected as previously described.
# Calcium flux in HEK293 cells was measured as previously described.
# [2] = molecular target: mGPR17 (Mus musculus, UniProt Q6NS65); experiment: Calcium flux in GLUTag cells expressing mGPR17; assay type: cell-based; parameters: host or cells: GLUTag cells, adenoviral transduction; conditions: for Mean Diff. (Tukey's multiple comparisons test, Figure 4C): mGPR17
# mGPR17, sequence (Q6NS65 whole entry): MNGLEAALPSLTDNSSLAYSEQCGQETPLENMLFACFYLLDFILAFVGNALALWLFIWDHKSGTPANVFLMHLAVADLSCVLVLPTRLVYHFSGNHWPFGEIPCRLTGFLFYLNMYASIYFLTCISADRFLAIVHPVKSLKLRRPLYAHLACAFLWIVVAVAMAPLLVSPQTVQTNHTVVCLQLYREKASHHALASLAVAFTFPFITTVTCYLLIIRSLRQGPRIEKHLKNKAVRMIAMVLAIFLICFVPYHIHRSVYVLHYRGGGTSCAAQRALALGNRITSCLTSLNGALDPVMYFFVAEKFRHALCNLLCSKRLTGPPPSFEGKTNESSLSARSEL
# Procedure: GLUTag cells were maintained in Dulbecco’s Modified Eagle Medium (DMEM) supplemented with 10% fetal bovine serum and 1% penicillin–streptomycin in a humidified incubator at 37 °C and 5% CO2. For adenovirus transduction, GLUTag cells were seeded into poly-D-lysine coated 96-well plates or 4-chamber slides. The next day, cells were transduced with adenoviruses (100–1250 viral particles per cell at time of seeding) as indicated. After 24–30 h, adenovirus-containing media was changed to serum-free growth media for overnight serum starvation. The following day, GLUTag cells were used for cAMP or calcium signaling assays, GLP-1 secretion assays, or immunostaining and imaging.
# GLUTag cells were seeded into black, clear bottom, poly-D-lysine-coated 96-well plates. Cells were transduced and serum starved as specified above. Growth medium was then replaced with 100 μL/well assay buffer (HBSS, 20 mM HEPES, pH 7.4) and 100 μL/well Calcium 6 loading dye (R8190; Molecular Devices, San Jose, CA, USA). During dye loading, cells were incubated at 37 °C and 5% CO2 for 2 h. MDL29,951 or KCl was added to the wells and fluorescence (485 nm excitation, 525 nm emission, and 515 nm automatic emission cutoff) was measured using a Molecular Devices FlexStation3 (Molecular Devices) at 37 °C. For experiments with PTX, cells were pretreated with 100 ng/mL PTX overnight and 100 ng/mL PTX was included with Calcium 6 loading dye for calcium flux assays. For experiments with YM-254890, cells were pretreated for 30 min at 37 °C.
# hGPR17L, sequence (Q13304 whole entry): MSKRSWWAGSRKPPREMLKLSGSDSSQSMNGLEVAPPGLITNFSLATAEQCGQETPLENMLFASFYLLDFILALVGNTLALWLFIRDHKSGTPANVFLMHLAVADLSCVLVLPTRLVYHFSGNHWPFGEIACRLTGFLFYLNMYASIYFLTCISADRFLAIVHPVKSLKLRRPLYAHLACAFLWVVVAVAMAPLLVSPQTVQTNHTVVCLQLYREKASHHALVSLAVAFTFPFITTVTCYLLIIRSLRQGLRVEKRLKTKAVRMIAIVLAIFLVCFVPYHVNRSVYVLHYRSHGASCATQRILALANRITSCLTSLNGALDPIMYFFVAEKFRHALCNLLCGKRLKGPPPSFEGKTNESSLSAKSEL
smiles,measurement,setting,value
"O=C(O)CCc1c(C(=O)O)[nH]c2cc(Cl)cc(Cl)c12 [MDL29,951]",Calcium Emax (Mean Peak ΔF/F),[1],1.92±0.22
same,Calcium Potency (pEC50),[1],7.29±0.11
same,EC50,[1]; read-out: Calcium Potency EC50,51 nM
same,"maximal calcium stimulation, % of the hGPR17L-WT response",[2]; GLUTag mGPR17,74 ± 2.7%
same,"pEC50, calcium responses",[2]; GLUTag mGPR17,6.17 ± 0.04
same,EC50,"[2]; GLUTag mGPR17, read-out: EC50, calcium responses",680 nM
same,"Mean Diff. (Tukey's multiple comparisons test, Figure 4C)","[2]; log [MDL29,951] (M) -4.5 vs. Vehicle",72.98
same,"Mean Diff. (Tukey's multiple comparisons test, Figure 4C)","[2]; log [MDL29,951] (M) -5.0 vs. Vehicle",62.99
same,"Mean Diff. (Tukey's multiple comparisons test, Figure 4C)","[2]; log [MDL29,951] (M) -5.5 vs. Vehicle",54.24
same,"Mean Diff. (Tukey's multiple comparisons test, Figure 4C)","[2]; log [MDL29,951] (M) -6.0 vs. Vehicle",47.28
same,"Mean Diff. (Tukey's multiple comparisons test, Figure 4C)","[2]; log [MDL29,951] (M) -6.4 vs. Vehicle",29.04
same,"Mean Diff. (Tukey's multiple comparisons test, Figure 4C)","[2]; log [MDL29,951] (M) -6.9 vs. Vehicle",21.01
same,"Mean Diff. (Tukey's multiple comparisons test, Figure 4C)","[2]; log [MDL29,951] (M) -7.4 vs. Vehicle",6.844
same,"Mean Diff. (Tukey's multiple comparisons test, Figure 4C)","[2]; log [MDL29,951] (M) -7.9 vs. Vehicle",-0.1174
same,"Mean Diff. (Tukey's multiple comparisons test, Figure 4C)","[2]; log [MDL29,951] (M) -8.3 vs. Vehicle",-1.354
same,"Mean Diff. (Tukey's multiple comparisons test, Figure 4C)","[2]; log [MDL29,951] (M) -8.8 vs. Vehicle",-0.5799
